Legend:
[1] = Photochemical cleavage assays of incorporated nucleotide analogs (365 nm UV light, DT50); format: physicochemical; details: for DT50 in 1 mM NaN3, 50 mM DTT / DT50 in 1 mM NaN3, No DTT: 365 nm UV, 0.70 W/cm^2; for DT50 values: UV photochemical cleavage experiments
Method: As used herein, the term “DT50” refers to the amount of time required to cleavage 50% of the base analog incorporated in the primer-template complex.
To compare the rates of photochemical cleavage between the nucleotide analogs described here, a protocol was developed to deliver a daily light intensity output of 0.70±0.01 W/cm^2 to samples, see below.
The power supply was turned on for about 30 min prior to that of the lamp and recirculation bath as described by the manufacturer. The IR liquid filter was cooled to 9° C. Light intensity was determined using a model PM100 power meter (Thorlabs), a 1000 μm pinhole (Edmund Optics), a modified 0.5 mL Eppendorf tube cut in half, and a 3-axis manual translation stage (Newport), see FIG. 5. The half cut Eppendorf tube was positioned in front of the pinhole and power meter detector head to account for the geometric shape distortion of the light as it passes through a reaction solution. The translation stage was then used to align the tube/pinhole/detector device with the highest intensity from the arc beam.
To stabilize its output, the lamp was left on for one hour prior to intensity measurements. Thereafter, the measured power was adjusted by increasing the current from the power supply. In order to achieve intensity (I) of 0.70 W/cm^2, the measured power (P) was adjusted to ˜5.5 mW, according to the equation:
[formula] where r is the radius of pinhole.
The beam was then focused by placing an 0.5 mL Eppendorf tube into the sample holder, the tube of which was modified with an internal alignment card to provide reference lines for volume heights of 10 μL and 20 μL, see FIG. 5. The reference lines enabled the beam to be centered for a given reaction volume. Beam alignment was further verified by observing the mercury arc image of the lamp produced by the rear reflector. A second alignment card was placed into the rotating sample holder to view the image, which when properly aligned using the reflector would produce an inverted arc image on the arc gap itself. This step ensured that arc hotspots were not superimposed, which could cause overheating while maintaining a power output of ˜5.5 mW. The speed of the rotating sample holder was adjusted within a range of 1,200-1,350 rpm using a Nova-Strobe DA Plus stroboscope (Monarch Instrument) by adjusting the motor's torque with an adjustment screw.
Photochemical cleavage assays: Nucleotide analogs were incorporated using 10 μL reactions, as described for the PEP assays, at a final concentration of 100 nM. […] OligoTemplate-2, oligoTemplate-5, and oligoTemplate-4 each hybridized with BODIPY-FL labeled primer-1 were used for C^7-HOMedA, C^7-HOMedG, and HOMedU analogs, respectively. OligoTemplate-8 hybridized with BODIPY-FL labeled primer-3 was used to assay HOMedC analogs. Incorporated reactions were quenched with either 1 mM sodium azide solution; 1 mM sodium azide, 50 mM DTT solution; or reagents C-G (see key in FIG. 4), exposed to 365 nm ultraviolet (UV) light for various time points using our UV deprotector, and then placed on ice.

DNA synthesis = experiment: Termination assays (incorporation and termination of DNA synthesis); format: biochemical; details: 10 μM
Description: Another class of 3′-OH unblocked nucleotides has been described by Mitra et al. (2003) and Turcatti et al. (2008), which rely on steric hindrance of the bulky dye group to stop incorporation after the addition of the first nucleotide. It is noted that the substituted 2-nitrobenzyl nucleotide analogs described by Wu et al. (2007), Litosh et al. (2011), and Gardner et al., 2012 cause termination of DNA synthesis without the requirement of bulky substituents such as fluorescent dyes. A further class of 3′-unblocked nucleotides has been described by Helicos Biosciences. These nucleotides use a second nucleoside or nucleotide analog that acts as an inhibitor of DNA synthesis (Bowers et al., 2009; U.S. Pat. No. 7,476,734). A significant difference in termination properties is observed when comparing compounds of the present invention with those described by Bowers. For example, Bowers et al. described pre-steady-state kinetics employing two-base homopolymer templates, for which kpol(+2) rates were measured for all of their 3′-OH unblocked ‘virtual’ terminators. Bowers et al. conducted their termination experiments at submicromolar nucleotide concentrations (i.e., from 100 to 250 nM), termination assays. In contrast, several compounds of the present invention were performed at 10 μM over the time course of 0.5 to 20 min. […]

[2] = Table 3, reversible terminators
[3] = Table 3, reversible terminators, [a] transient product considered as cleaved product
[4] = Table 2, C^7-HOMedG analogs, average ± 1SD, triplicate

COc1ccc([N+](=O)[O-])c([C@@H](OCc2cn([C@H]3C[C@H](O)[C@@H](COP(=O)(O)OP(=O)(O)OP(=O)(O)O)O3)c3ncnc(N)c23)C(C)(C)C)c1 [dA.VI, 7-[(S)-1-(5-methoxy-2-nitrophenyl)-2,2-dimethyl-propyloxy]methyl-7-deaza-2′-deoxyadenosine-5′-triphosphate]
DT50 in 1 mM NaN3, 50 mM DTT [1, 2]: 0.8 ± 0.1 s | DT50 in 1 mM NaN3, No DTT [1, 3]: 0.8 ± 0.1^[a] sec

Nc1nc(=O)n([C@H]2C[C@H](O)[C@@H](COP(=O)(O)OP(=O)(O)OP(=O)(O)O)O2)cc1COCc1ccccc1[N+](=O)[O-] [dC.I, 5-(2-nitrobenzyloxy)methyl-2′-deoxycytidine-5′-triphosphate]
DT50 in 1 mM NaN3, 50 mM DTT [1, 2]: 1.6 ± 0.2 s | DT50 in 1 mM NaN3, No DTT [1, 3]: 2.0 ± 0.3 s | DT50 values [1]: 2.0 s

CC(C)(C)[C@H](OCc1cn([C@H]2C[C@H](O)[C@@H](COP(=O)(O)OP(=O)(O)OP(=O)(O)O)O2)c(=O)nc1N)c1ccccc1[N+](=O)[O-] [dC.V, 5-[(S)-1-(2-nitrophenyl)-2,2-dimethyl-propyloxy]methyl-2′-deoxycytidine-5′-triphosphate]
DT50 in 1 mM NaN3, 50 mM DTT [1, 2]: 1.0 ± 0.2 s | DT50 in 1 mM NaN3, No DTT [1, 3]: 1.2 ± 0.1 s

COc1ccc([N+](=O)[O-])c([C@@H](OCc2cn([C@H]3C[C@H](O)[C@@H](COP(=O)(O)OP(=O)(O)OP(=O)(O)O)O3)c(=O)nc2N)C(C)(C)C)c1 [dC.VI, 5-[(S)-1-(5-methoxy-2-nitrophenyl)-2,2-dimethyl-propyloxy]methyl-2′-deoxycytidine-5′-triphosphate]
DT50 in 1 mM NaN3, 50 mM DTT [1, 2]: 0.6 ± 0.1 s | DT50 in 1 mM NaN3, No DTT [1, 3]: 0.6 ± 0.1^[a] sec

Nc1nc2c(c(COCc3ccccc3[N+](=O)[O-])cn2[C@H]2C[C@H](O)[C@@H](COP(=O)(O)OP(=O)(O)OP(=O)(O)O)O2)c(=O)[nH]1 [dG.I, 7-(2-nitrobenzyloxy)methyl-7-deaza-2′-deoxyguanosine-5′-triphosphate]
DT50 in 1 mM NaN3, 50 mM DTT [1, 4]: 8.1 ± 0.2 s | DT50 in 1 mM NaN3, No DTT [1, 4]: 9.2 ± 0.3 s | DT50 in 1 mM NaN3, 50 mM DTT [1, 2]: 8.1 ± 0.2 s | DT50 in 1 mM NaN3, No DTT [1, 3]: 9.2 ± 0.3 s | DT50 values [1]: 9.2 s

CC(C)(C)[C@H](OCc1cn([C@H]2C[C@H](O)[C@@H](COP(=O)(O)OP(=O)(O)OP(=O)(O)O)O2)c2nc(N)[nH]c(=O)c12)c1ccccc1[N+](=O)[O-] [dG.V, 7-[(S)-1-(2-nitrophenyl)-2,2-dimethyl-propyloxy]methyl-7-deaza-2′-deoxyguanosine-5′-triphosphate]
DT50 in 1 mM NaN3, 50 mM DTT [1, 2]: 2.9 ± 0.2 s | DT50 in 1 mM NaN3, No DTT [1, 3]: 3.0 ± 0.1 s

CC(C)(C)C(OCc1cn([C@H]2C[C@H](O)[C@@H](COP(=O)(O)OP(=O)(O)OP(=O)(O)O)O2)c2nc(N)[nH]c(=O)c12)c1ccccc1[N+](=O)[O-] (stereo partly shown) [dG.V.a ds1, 7-[1-(2-nitrophenyl)-2,2-dimethyl-propyloxy]methyl-7-deaza-2′-deoxyguanosine-5′-triphosphate]
DT50 in 1 mM NaN3, 50 mM DTT [1, 4]: 10.7 ± 0.2 s | DT50 in 1 mM NaN3, No DTT [1, 4]: 11.0 ± 0.4 s

COc1ccc([N+](=O)[O-])c(C(OCc2cn([C@H]3C[C@H](O)[C@@H](COP(=O)(O)OP(=O)(O)OP(=O)(O)O)O3)c3nc(N)[nH]c(=O)c23)C(C)(C)C)c1 (stereo partly shown) [dG.V.c ds1, 7-[1-(5-methoxy-2-nitrophenyl)-2,2-dimethyl-propyloxy]methyl-7-deaza-2′-deoxyguanosine-5′-triphosphate]
DT50 in 1 mM NaN3, 50 mM DTT [1, 4]: 3.0 ± 0.1 s | DT50 in 1 mM NaN3, No DTT [1, 4]: 3.5 ± 0.3 s | rate increases, dG.V.c compared with dG.V.a ([1]; same isomer (ds1 or ds2) of dG.V.c vs dG.V.a): 3.6 × | faster photochemical cleavage rates compared with the corresponding 4-OMe isomers ([1]; α-tert-butyl C^7-HOMedG analogs, 5-OMe vs 4-OMe): 1.4 × fold

COc1ccc([N+](=O)[O-])c([C@@H](OCc2cn([C@H]3C[C@H](O)[C@@H](COP(=O)(O)OP(=O)(O)OP(=O)(O)O)O3)c3nc(N)[nH]c(=O)c23)C(C)(C)C)c1 [dG.VI, 7-[(S)-1-(5-methoxy-2-nitrophenyl)-2,2-dimethyl-propyloxy]methyl-7-deaza-2′-deoxyguanosine-5′-triphosphate]
DT50 in 1 mM NaN3, 50 mM DTT [1, 2]: 0.8 ± 0.1 s | DT50 in 1 mM NaN3, No DTT [1, 3]: 0.8 ± 0.1 s

COc1ccc([N+](=O)[O-])c([C@@H](OCc2cn([C@H]3C[C@H](O)[C@@H](COP(=O)(O)OP(=O)(O)OP(=O)(O)O)O3)c(=O)[nH]c2=O)C(C)(C)C)c1 [dU.VI, 5-[(S)-1-(5-Methoxy-2-nitrophenyl)-2,2-dimethyl-propyloxy]methyl-2′-deoxyuridine-5′-triphosphate]
DT50 in 1 mM NaN3, 50 mM DTT [1, 2]: 0.7 ± 0.1 s | DT50 in 1 mM NaN3, No DTT [1, 3]: 0.7 ± 0.1^[a] sec | incorporated at the first base position (DNA synthesis; by 2 min): 100% | signal at the expected second-base position (termination of DNA synthesis) (DNA synthesis; incubation times up to 20 min): No appreciable signal could be detected

From patent US10041115B2, “3′-OH unblocked, fast photocleavable terminating nucleotides and methods for nucleic acid sequencing” (LASERGEN, INC., priority 2011, dated 2018)
